Measured values taken from paper PMC6303390, “Nucleotide-dependent DNA gripping and an end-clamp mechanism regulate the bacteriophage T4 viral packaging motor” (Nature Communications, 2018).

Key:
[1] = molecular target: T1, bacteriophage T4 packaging motor (gp17 on emptied T4 heads) (Tequatrovirus T4, UniProt P17312); assay: optical tweezers single-DNA grip/slip assay with solution exchange; type: binding; conditions: 0.5 mM ADP, 5 pN force; 50 mM Tris-HCl pH 7.5, 5 mM MgCl2, 80 mM NaCl
T1 construct: gene 17; N-terminally His-tagged recombinant gp17 from E. coli, assembled as pentamer on emptied heads (10am13am mutant phage) that carry the gp20 portal; with Portal protein

[2] = molecular target: T1, bacteriophage T4 packaging motor (gp17 on emptied T4 heads); assay: optical tweezers single-DNA packaging assay; type: biochemical; conditions: ATP-driven DNA translocation; 50 mM Tris-HCl pH 7.5, 5 mM MgCl2, 80 mM NaCl

T1 sequence (P17312 whole entry): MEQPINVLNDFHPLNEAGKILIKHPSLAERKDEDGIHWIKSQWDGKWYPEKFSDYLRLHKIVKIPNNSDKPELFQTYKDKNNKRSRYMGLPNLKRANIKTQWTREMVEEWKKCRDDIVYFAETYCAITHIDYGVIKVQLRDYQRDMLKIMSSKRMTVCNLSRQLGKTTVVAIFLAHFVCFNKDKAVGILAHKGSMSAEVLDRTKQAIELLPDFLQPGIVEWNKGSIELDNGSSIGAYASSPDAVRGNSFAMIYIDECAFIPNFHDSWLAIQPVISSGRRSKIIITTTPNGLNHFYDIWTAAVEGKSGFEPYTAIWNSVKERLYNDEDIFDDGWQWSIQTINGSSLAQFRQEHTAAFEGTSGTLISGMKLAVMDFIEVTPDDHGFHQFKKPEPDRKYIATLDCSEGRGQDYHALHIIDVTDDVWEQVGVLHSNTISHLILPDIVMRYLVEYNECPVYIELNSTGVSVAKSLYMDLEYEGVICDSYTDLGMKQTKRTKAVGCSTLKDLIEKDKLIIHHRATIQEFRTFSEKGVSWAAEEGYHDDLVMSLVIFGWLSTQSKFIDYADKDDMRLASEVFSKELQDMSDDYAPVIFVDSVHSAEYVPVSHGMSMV

Compound | optical tweezers single-DNA grip/slip assay with solution exchange [1] | optical tweezers single-DNA packaging assay [2]
Nc1ncnc2c1ncn2[C@@H]1O[C@H](COP(=O)(O)OP(=O)(O)O)[C@@H](O)[C@H]1O [ADP] | when ADP is used highly intermittent gripping is observed | 
Nc1ncnc2c1ncn2[C@@H]1O[C@H](COP(=O)(O)OP(=O)(O)OP(=O)(O)O)[C@@H](O)[C@H]1O [ATP] |  | In each case the motor restarts when the complex is moved back into ATP
